Test results published in PubChem BioAssay AID2060904 (Molecular Pharmacology Branch, DTP, NCI, 2025).

Test system: 349418-098-R-PDC complex spheroid viability
Experiment: Anticancer human tumor 349418-098-R-PDC patient-derived lung adenocarcinoma cell line growth inhibition [RAS]
Conditions: for IC50: curve of first compound; for viability, T/C: stronger effect = lower value
Method in brief: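 Agents were tested in combination matrices in half-log decrements from a top concentration at or near clinical Cmax (10 microM if undetermined). Targets were multi-cell spheroids of tumour lines plus HUVEC and MSC stromal cells.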

[1] = second compound 0.000949 µM, first compound 0.00316 µM
[2] = second compound 0.000949 µM, first compound 0.01 µM
[3] = second compound 0.000949 µM, first compound 0.0316 µM
[4] = second compound 0.000949 µM, first compound 0.1 µM
[5] = second compound 0.000949 µM, first compound 0.316 µM
[6] = second compound 0.000949 µM, first compound 1 µM
[7] = second compound 0.003 µM, first compound 0.00316 µM
[8] = second compound 0.003 µM, first compound 0.01 µM
[9] = second compound 0.003 µM, first compound 0.0316 µM
[10] = second compound 0.003 µM, first compound 0.1 µM
[11] = second compound 0.003 µM, first compound 0.316 µM
[12] = second compound 0.003 µM, first compound 1 µM
[13] = second compound 0.00949 µM, first compound 0.00316 µM
[14] = second compound 0.00949 µM, first compound 0.01 µM
[15] = second compound 0.00949 µM, first compound 0.0316 µM
[16] = second compound 0.00949 µM, first compound 0.1 µM
[17] = second compound 0.00949 µM, first compound 0.316 µM
[18] = second compound 0.00949 µM, first compound 1 µM
[19] = second compound 0.03 µM, first compound 0.00316 µM
[20] = second compound 0.03 µM, first compound 0.01 µM
[21] = second compound 0.03 µM, first compound 0.0316 µM
[22] = second compound 0.03 µM, first compound 0.1 µM
[23] = second compound 0.03 µM, first compound 0.316 µM
[24] = second compound 0.03 µM, first compound 1 µM
[25] = second compound 0.0949 µM, first compound 0.00316 µM
[26] = second compound 0.0949 µM, first compound 0.01 µM
[27] = second compound 0.0949 µM, first compound 0.0316 µM
[28] = second compound 0.0949 µM, first compound 0.1 µM
[29] = second compound 0.0949 µM, first compound 0.316 µM
[30] = second compound 0.0949 µM, first compound 1 µM
[31] = second compound 0.3 µM, first compound 0.00316 µM
[32] = second compound 0.3 µM, first compound 0.01 µM
[33] = second compound 0.3 µM, first compound 0.0316 µM
[34] = second compound 0.3 µM, first compound 0.1 µM
[35] = second compound 0.3 µM, first compound 0.316 µM
[36] = second compound 0.3 µM, first compound 1 µM
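Further: spheroids exposed to compound for seven days before viability readout.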

## C=CC(=O)N1CCN(c2nc(OCC3CCCN3C)nc3c(F)c(-c4nc(N)cc(C)c4C(F)(F)F)c(Cl)cc23)C(C)C1 (stereo not drawn) + CCn1c(-c2cc(N3CCN(C)CC3)cnc2C(C)OC)c2c3cc(ccc31)-c1csc(n1)CC(NC(=O)C1CC1C)C(=O)N1CCCC(N1)C(=O)OCC(C)(C)C2
Second compound 0.000949 µM
  IC50: > 1000 nM
Second compound 0.003 µM
  IC50: > 1000 nM
Second compound 0.00949 µM
  IC50: > 1000 nM
Second compound 0.03 µM
  IC50: > 1000 nM
Second compound 0.0949 µM
  IC50: > 1000 nM
Second compound 0.3 µM
  IC50: > 1000 nM
[1]
  viability, T/C: 117%
[2]
  viability, T/C: 82.4%
[3]
  viability, T/C: 109%
[4]
  viability, T/C: 101%
[5]
  viability, T/C: 96.8%
[6]
  viability, T/C: 101%
[7]
  viability, T/C: 90.3%
[8]
  viability, T/C: 105%
[9]
  viability, T/C: 96.1%
[10]
  viability, T/C: 86.7%
[11]
  viability, T/C: 99.9%
[12]
  viability, T/C: 82.2%
[13]
  viability, T/C: 101%
[14]
  viability, T/C: 97.1%
[15]
  viability, T/C: 104%
[16]
  viability, T/C: 98.9%
[17]
  viability, T/C: 106%
[18]
  viability, T/C: 80.7%
[19]
  viability, T/C: 99%
[20]
  viability, T/C: 110%
[21]
  viability, T/C: 99.7%
[22]
  viability, T/C: 102%
[23]
  viability, T/C: 97.4%
[24]
  viability, T/C: 82.3%
[25]
  viability, T/C: 92.5%
[26]
  viability, T/C: 110%
[27]
  viability, T/C: 112%
[28]
  viability, T/C: 112%
[29]
  viability, T/C: 113%
[30]
  viability, T/C: 102%
[31]
  viability, T/C: 110%
[32]
  viability, T/C: 94.3%
[33]
  viability, T/C: 105%
[34]
  viability, T/C: 109%
[35]
  viability, T/C: 99.7%
[36]
  viability, T/C: 90.5%

## CC1(C)CCC(Nc2ncc(C(F)(F)F)c(-c3c[nH]c4c(P(C)(C)=O)c(C#N)ccc34)n2)CN1 (stereo not drawn) + CCn1c(-c2cc(N3CCN(C)CC3)cnc2C(C)OC)c2c3cc(ccc31)-c1csc(n1)CC(NC(=O)C1CC1C)C(=O)N1CCCC(N1)C(=O)OCC(C)(C)C2
Second compound 0.000949 µM
  IC50: 1.07 nM
Second compound 0.003 µM
  IC50: 1.02 nM
Second compound 0.00949 µM
  IC50: < 0.949 nM
Second compound 0.03 µM
  IC50: 1.05 nM
Second compound 0.0949 µM
  IC50: < 0.949 nM
Second compound 0.3 µM
  IC50: 1.09 nM
Second compound 0.000949 µM, first compound 0.000949 µM
  viability, T/C: 53.6%
Second compound 0.000949 µM, first compound 0.003 µM
  viability, T/C: 23.1%
Second compound 0.000949 µM, first compound 0.00949 µM
  viability, T/C: 13.3%
Second compound 0.000949 µM, first compound 0.03 µM
  viability, T/C: 9.61%
Second compound 0.000949 µM, first compound 0.0949 µM
  viability, T/C: 8.11%
Second compound 0.000949 µM, first compound 0.3 µM
  viability, T/C: 6.35%
Second compound 0.003 µM, first compound 0.000949 µM
  viability, T/C: 52.2%
Second compound 0.003 µM, first compound 0.003 µM
  viability, T/C: 22.1%
Second compound 0.003 µM, first compound 0.00949 µM
  viability, T/C: 14.4%
Second compound 0.003 µM, first compound 0.03 µM
  viability, T/C: 8.76%
Second compound 0.003 µM, first compound 0.0949 µM
  viability, T/C: 7.99%
Second compound 0.003 µM, first compound 0.3 µM
  viability, T/C: 7.95%
Second compound 0.00949 µM, first compound 0.000949 µM
  viability, T/C: 50.2%
Second compound 0.00949 µM, first compound 0.003 µM
  viability, T/C: 26.2%
Second compound 0.00949 µM, first compound 0.00949 µM
  viability, T/C: 12.5%
Second compound 0.00949 µM, first compound 0.03 µM
  viability, T/C: 9.59%
Second compound 0.00949 µM, first compound 0.0949 µM
  viability, T/C: 9.15%
Second compound 0.00949 µM, first compound 0.3 µM
  viability, T/C: 8%
Second compound 0.03 µM, first compound 0.000949 µM
  viability, T/C: 53.3%
Second compound 0.03 µM, first compound 0.003 µM
  viability, T/C: 20.5%
Second compound 0.03 µM, first compound 0.00949 µM
  viability, T/C: 12.5%
Second compound 0.03 µM, first compound 0.03 µM
  viability, T/C: 9.78%
Second compound 0.03 µM, first compound 0.0949 µM
  viability, T/C: 8.18%
Second compound 0.03 µM, first compound 0.3 µM
  viability, T/C: 8.17%
Second compound 0.0949 µM, first compound 0.000949 µM
  viability, T/C: 49.1%
Second compound 0.0949 µM, first compound 0.003 µM
  viability, T/C: 23.5%
Second compound 0.0949 µM, first compound 0.00949 µM
  viability, T/C: 11.1%
Second compound 0.0949 µM, first compound 0.03 µM
  viability, T/C: 10.2%
Second compound 0.0949 µM, first compound 0.0949 µM
  viability, T/C: 10.9%
Second compound 0.0949 µM, first compound 0.3 µM
  viability, T/C: 7.97%
Second compound 0.3 µM, first compound 0.000949 µM
  viability, T/C: 53.6%
Second compound 0.3 µM, first compound 0.003 µM
  viability, T/C: 23.7%
Second compound 0.3 µM, first compound 0.00949 µM
  viability, T/C: 11.2%
Second compound 0.3 µM, first compound 0.03 µM
  viability, T/C: 11%
Second compound 0.3 µM, first compound 0.0949 µM
  viability, T/C: 9.58%
Second compound 0.3 µM, first compound 0.3 µM
  viability, T/C: 7.73%

## C=CC(=O)Nc1cc(Nc2nccc(-c3cn(C)c4ccccc34)n2)c(OC)cc1N(C)CCN(C)C + CCn1c(-c2cccnc2C(C)OC)c2c3cc(ccc31)N1CCOC(CC(NC(=O)C(C(C)C)N(C)C(=O)C3(F)CCN(C(=O)C#CC(C)(C)N(C)C)CC3)C(=O)N3CCCC(N3)C(=O)OCC(C)(C)C2)C1
Second compound 0.000949 µM
  IC50: > 1000 nM
Second compound 0.003 µM
  IC50: > 1000 nM
Second compound 0.00949 µM
  IC50: > 1000 nM
Second compound 0.03 µM
  IC50: > 1000 nM
Second compound 0.0949 µM
  IC50: > 1000 nM
Second compound 0.3 µM
  IC50: > 1000 nM
[1]
  viability, T/C: 115%
[2]
  viability, T/C: 100%
[3]
  viability, T/C: 93.6%
[4]
  viability, T/C: 98.3%
[5]
  viability, T/C: 95.4%
[6]
  viability, T/C: 71.8%
[7]
  viability, T/C: 117%
[8]
  viability, T/C: 98.6%
[9]
  viability, T/C: 114%
[10]
  viability, T/C: 116%
[11]
  viability, T/C: 116%
[12]
  viability, T/C: 60.7%
[13]
  viability, T/C: 109%
[14]
  viability, T/C: 117%
[15]
  viability, T/C: 110%
[16]
  viability, T/C: 96%
[17]
  viability, T/C: 104%
[18]
  viability, T/C: 75.9%
[19]
  viability, T/C: 119%
[20]
  viability, T/C: 109%
[21]
  viability, T/C: 105%
[22]
  viability, T/C: 106%
[23]
  viability, T/C: 103%
[24]
  viability, T/C: 75.2%
[25]
  viability, T/C: 110%
[26]
  viability, T/C: 99.3%
[27]
  viability, T/C: 85.4%
[28]
  viability, T/C: 98.6%
[29]
  viability, T/C: 101%
[30]
  viability, T/C: 65.3%
[31]
  viability, T/C: 90.2%
[32]
  viability, T/C: 99.8%
[33]
  viability, T/C: 99.2%
[34]
  viability, T/C: 100%
[35]
  viability, T/C: 88.2%
[36]
  viability, T/C: 65.6%

## O=C(c1ccc(F)c(F)c1Nc1ccc(I)cc1F)N1CC(O)([C@@H]2CCCCN2)C1 + CCn1c(-c2cccnc2C(C)OC)c2c3cc(ccc31)N1CCOC(CC(NC(=O)C(C(C)C)N(C)C(=O)C3(F)CCN(C(=O)C#CC(C)(C)N(C)C)CC3)C(=O)N3CCCC(N3)C(=O)OCC(C)(C)C2)C1
Second compound 0.000949 µM
  IC50: < 3.16 nM
Second compound 0.003 µM
  IC50: < 3.16 nM
Second compound 0.00949 µM
  IC50: < 3.16 nM
Second compound 0.03 µM
  IC50: < 3.16 nM
Second compound 0.0949 µM
  IC50: < 3.16 nM
Second compound 0.3 µM
  IC50: < 3.16 nM
[1]
  viability, T/C: 26.5%
[2]
  viability, T/C: 22.8%
[3]
  viability, T/C: 15.6%
[4]
  viability, T/C: 12.7%
[5]
  viability, T/C: 7.76%
[6]
  viability, T/C: 5.98%
[7]
  viability, T/C: 29.4%
[8]
  viability, T/C: 24.1%
[9]
  viability, T/C: 17.2%
[10]
  viability, T/C: 11.3%
[11]
  viability, T/C: 6.93%
[12]
  viability, T/C: 5.43%
[13]
  viability, T/C: 28.6%
[14]
  viability, T/C: 17.8%
[15]
  viability, T/C: 14.9%
[16]
  viability, T/C: 10.6%
[17]
  viability, T/C: 7.5%
[18]
  viability, T/C: 6.07%
[19]
  viability, T/C: 30.2%
[20]
  viability, T/C: 14.9%
[21]
  viability, T/C: 15.8%
[22]
  viability, T/C: 12%
[23]
  viability, T/C: 7.23%
[24]
  viability, T/C: 5.04%
[25]
  viability, T/C: 27.1%
[26]
  viability, T/C: 17.5%
[27]
  viability, T/C: 13.2%
[28]
  viability, T/C: 10.3%
[29]
  viability, T/C: 6.84%
[30]
  viability, T/C: 5.79%
[31]
  viability, T/C: 30.1%
[32]
  viability, T/C: 15.8%
[33]
  viability, T/C: 12.9%
[34]
  viability, T/C: 11.1%
[35]
  viability, T/C: 7.31%
[36]
  viability, T/C: 5.8%
